For one assay, the system named is CD8+ T cells. The assay can be described thus: In vitro T-cell priming assay (aAPCs loaded with peptide/MHC and anti-CD28, pMHC multimer readout; HLA-A*02 and HLA-A*24). The class given is cell-based, human. As to conditions: in vitro immunogenicity of HLA class I peptides; peptide-specific T cells by pMHC multimer staining. From the text:
In order to obtain information regarding the immunogenicity of the TUMAPs of the present invention, the inventors performed investigations using an in vitro T-cell priming assay based on repeated stimulations of CD8+ T cells with artificial antigen presenting cells (aAPCs) loaded with peptide/MHC complexes and anti-CD28 antibody.
In order to perform in vitro stimulations by artificial antigen presenting cells loaded with peptide-MHC complex (pMHC) and anti-CD28 antibody, the inventors first isolated CD8+ T cells from fresh HLA-A*02 leukapheresis products via positive selection using CD8 microbeads (Miltenyi Biotec, Bergisch-Gladbach, Germany) of healthy donors obtained from the University clinics Mannheim, Germany, after informed consent.
PBMCs and isolated CD8+ lymphocytes were incubated in T-cell medium (TCM) until use consisting of RPMI-Glutamax (Invitrogen, Karlsruhe, Germany) supplemented with 10% heat inactivated human AB serum (PAN-Biotech, Aidenbach, Germany), 100 U/ml Penicillin/100 μg/ml Streptomycin (Cambrex, Cologne, Germany), 1 mM sodium pyruvate (CC Pro, Oberdorla, Germany), 20 μg/ml Gentamycin (Cambrex). 2.5 ng/ml IL-7 (PromoCell, Heidelberg, Germany) and 10 U/ml IL-2 (Novartis Pharma, Nürnberg, Germany) were also added to the TCM at this step.
Generation of pMHC/anti-CD28 coated beads, T-cell stimulations and readout was performed in a highly defined in vitro system using four different pMHC molecules per stimulation condition and 8 different pMHC molecules per readout condition.
The purified co-stimulatory mouse IgG2a anti human CD28 Ab 9.3 (Jung et al., 1987) was chemically biotinylated using Sulfo-N-hydroxysuccinimidobiotin as recommended by the manufacturer (Perbio, Bonn, Germany). Beads used were 5.6 μm diameter streptavidin coated polystyrene particles (Bangs Laboratories, Illinois, USA).
pMHC used for positive and negative control stimulations were A*0201/MLA-001 (peptide […] (SEQ ID NO. 418) from modified Melan-A/MART-1) and A*0201/DDX5-001 ([…] from DDX5, SEQ ID NO. 419), respectively.
800.000 beads/200 μl were coated in 96-well plates in the presence of 4×12.5 ng different biotin-pMHC, washed and 600 ng biotin anti-CD28 were added subsequently in a volume of 200 μl. Stimulations were initiated in 96-well plates by co-incubating 1×10^6 CD8+ T cells with 2×10^5 washed coated beads in 200 μl TCM supplemented with 5 ng/ml IL-12 (PromoCell) for 3 days at 37° C. Half of the medium was then exchanged by fresh TCM supplemented with 80 U/ml IL-2 and incubating was continued for 4 days at 37° C. This stimulation cycle was performed for a total of three times. For the pMHC multimer readout using 8 different pMHC molecules per condition, a two-dimensional combinatorial coding approach was used as previously described (Andersen et al., 2012) with minor modifications encompassing coupling to 5 different fluorochromes. Finally, multimeric analyses were performed by staining the cells with Live/dead near IR dye (Invitrogen, Karlsruhe, Germany), CD8-FITC antibody clone SK1 (BD, Heidelberg, Germany) and fluorescent pMHC multimers. For analysis, a BD LSRII SORP cytometer equipped with appropriate lasers and filters was used. Peptide specific cells were calculated as percentage of total CD8+ cells. Evaluation of multimeric analysis was done using the FlowJo software (Tree Star, Oregon, USA). In vitro priming of specific multimer+CD8+ lymphocytes was detected by comparing to negative control stimulations.
Exemplary flow cytometry results after TUMAP-specific multimer staining for 2 peptides of the invention are shown in FIGS. 3A-3B together with corresponding negative controls. Results for 5 peptides from the invention are summarized in Table12A. Exemplary flow cytometry results after TUMAP-specific multimer staining for 7 peptides of the invention are shown in FIGS. 4A-4C and FIGS. 5A-5D together with corresponding negative controls.

Another assay concerns the target HLA-A*02 (Homo sapiens, UniProt P04439, D140Y/D185E/D98H/E176V/E277Q/G131W/G231S/I119V/I121R/I166T/I218V/L300P/N151K/N90K/P208A/P217A/Q86G/Q94H/R138H/R169H). The assay can be described thus: MHC binding assay, UV-ligand exchange with beta2m ELISA, HLA-A*02. As to conditions: binding to HLA-A*02 ranged by peptide exchange yield (UV-ligand exchange, beta2m ELISA). In short, it runs like this: (§1)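 Peptide–MHC complexes made by UV-ligand exchange of a UV-cleavable peptide. Exchange yield measured by ELISA: monomers diluted 100-fold on streptavidin-coated plates, 1 h at 37°C, detected with HRP anti-β2m (2 ug/ml) and TMB, absorbance at 450 nm.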
On the technique in general: In an ELISA, binding on a coated surface is turned into a signal by an enzyme label.

Another assay relates to HLA-A*24. The assay can be described thus: MHC binding assay, UV-ligand exchange with beta2m ELISA, HLA-A*24. The arrangement: species or system human. The conditions noted are these: binding to HLA-A*24 ranged by peptide exchange yield (UV-ligand exchange, beta2m ELISA). In short, it runs like this:
as §1

The results in this text go back to US11541107B2, “Peptides and T cells for use in immunotherapeutic treatment of various cancers” (Immatics Biotechnologies GmbH, priority 2015, dated 2023).

On to “2 (ALYGKLLKL; listed as Homo sapiens) [compound 2]”, for which the “Wells positive [%]” value with CD8+ T cells is on record as “++++ (>=70% = ++++)”. For the same substance, the Peptide exchange result with HLA-A*02 is “+++ (50%-75% = +++)”.
The like results for “322 (ALVSGGVAQA; listed as Homo sapiens) [compound 322]” were, in that order, “+ (<20% = +)” and “+++ (50%-75% = +++)”.
On to “17 (ILHEHHIFL; listed as Homo sapiens) [compound 17]”, for which the “Wells positive [%]” value with CD8+ T cells is reported as “+ (<20% = +)”. For the same substance, the Peptide exchange result in the assay with HLA-A*02 is listed as “+++ (50%-75% = +++)”.
The like results for “7 (AAAAKVPEV; listed as Homo sapiens) [compound 7]” were, in that order, “+ (<20% = +)” and “+++ (50%-75% = +++)”.
In the case of “43 (LLWAGPVTA; listed as Homo sapiens) [compound 43]”, the “Wells positive [%]” value in the assay with CD8+ T cells is listed as “++++ (>=70% = ++++)”. In the assay with HLA-A*02, the Peptide exchange result was “+++ (50%-75% = +++)”.
For “9 (FLGDYVENL; listed as Homo sapiens) [compound 9]”, in that order: “+ (<20% = +)” and “++ (20%-49% = ++)”.
Consider “111 (VYVQILQKL; listed as Homo sapiens) [compound 111]”, for which the “Wells positive [%]” value in the assay with CD8+ T cells was “+ (<20% = +)”. The Peptide exchange result with HLA-A*24 is “+++ (50%-75% = +++)”.
For “115 (RYLNKSFVL; listed as Homo sapiens) [compound 115]”, in that order: “+ (<20% = +)” and “+++ (50%-75% = +++)”.
